The source of these data is PMC3359661, “FK228 Analogues Induce Fetal Hemoglobin in Human Erythroid Progenitors” (Anemia, 2012).

Where only a bound is given, the exact number is not on record here.

Test [1] has as its system γ-globin promoter activity in KU812-γF/βR stable lines. The experiment in a line: KU812 dual-luciferase reporter stable lines (μLCRβprRluc AγprFluc), γ-globin promoter activity. The note with it: 48 hr; for Fold change (γ/γ + 2β): untreated normalized to one. The format is cell-based, human. From the text: KU812 stable cell lines were created by co-transfecting wild-type KU812 cells with pEGFP-NI (G418 selectable marker) and theμLCRβ prRluc ^A γ prFluc dual-reporter a kind gifts from Dr. George Stamatoyannopoulos (University of Washington). […] Likewise, 1.4 kb of human Aγ-globin promoter was inserted upstream of firefly luciferase to create ^A γ prFluc. The μLCR (locus control region), Pβ prRluc, and ^A γ prFluc fragments were subsequently cloned into the mammalian vector, pRL-null.
After 72 hr, G418 was added at a concentration of […] for 3 days then maintained under selection pressure indefinitely at a concentration of […]. KU812 stable lines were treated with the various drugs at the same concentrations described above. FK228 and analogues were screened at concentrations between 1–1000 nM for 48 hr and cell toxicity was monitored by 2% Trypan blue exclusion. The effect of drug treatments on γ-globin and β-globin promoter activity was monitored by luciferase assay.
Luciferase activity was monitored under the different experimental conditions using the Dual Luciferase Assay Reporter System (Promega, Madison, WI). The activity of firefly luciferase represents γ-globin promoter activity (γF), while the renilla luciferase is the read-out for β-globin promoter activity (βR). The β-globin promoter was strategically cloned between the LCR and γ-globin promoter to increase β expression, while simultaneously increasing the sensitivity of detection of γ-globin gene inducers.
After drug treatments, KU812 stable cells were washed with 1X phosphate buffered saline and lysed in 1X Passive Lysis Buffer for 15 min, then protein extracts were added to the Luciferase Assay Reagent II and firefly luciferase activity quantified in a Turner Designs TD-20/20 luminometer (Sunnyvale, CA). To measure βR activity, Stop & Glo Reagents was added to measure the renilla luciferase activity. Total protein was determined by Bradford assay on a Beckman DU 640 spectrophotometer (Chaska, MN) and luciferase activity was corrected for total protein.
Subsequently, three independent dual-luciferase reporter KU812 stable cell lines were established to analyze the ability FK228 analogues to induce γ-globin promoter activity without an effect on β-globin transcription. […] Since the firefly luciferase gene (γF) has approximately […] luminescence than the renilla gene (βR), the renilla activity was multiplied by two to adjust for the difference in luminescence yielding the γ/γ+2β final measurement. The FK228 analogues were examined at concentrations ranging from 1–1000 nM in the three stable lines. After 48-hour treatments, cells were harvested and protein isolated for luciferase activity using the Dual Luciferase Reporter Assay.

Test [2] deals with HbF levels in primary erythroid cells. The experiment in a line: HbF ELISA in primary erythroid cells. The format is cell-based, human. Conditions: for Fold change in HbF levels: relative to untreated = 1, concentrations as in E7; for Fetal hemoglobin quantification, Mean (HbF/total Hb/total protein): treated Day 11, harvested Day 14, conc: Cys 10 mM, Hemin 50 μM, SAHA 2000 nM, FK228 1.5 nM, JMA1 1.5 nM, JMA2 1.0 nM, JMA26 500 nM, JMA33 1000 nM, untreated 0.683. On the procedure:
(§1) The two-phase liquid culture system was established as previously published by Fibach et al. using buffy coat mononuclear cells, purchased from Carter Blood Care (Fort Worth, TX) in accordance with the guidelines of the Institutional Review Board at the University of Texas at Dallas. During phase 1, cells were grown in IMDM medium with 30% fetal bovine serum and 50 ng/mL each of the granulocyte-monocyte colony-stimulating factor, Interleukin-3, and stem cell factor. Subsequently, phase 2 was initiated on day 7 with the addition of erythropoietin (2 U/mL) and stem cell factor (50 ng/mL). The cells were treated on Day 11 with the different test compounds and harvested on Day 14 (72 hr incubation).
Total hemoglobin was quantified using 20 μL of protein extract from one million KU812 cells mixed with 5 mL of Drabkin's reagent (Sigma); then cyanmethemoglobin was measured at the 540 nm wavelength. HbF levels were quantified using the human Hemoglobin F ELISA Quantitation Kit (Bethyl Laboratory, Montgomery, TX). Briefly, 96-well plates were coated with sheep anti-human HbF antibody (1 mg/mL). After blocking with 1% bovine serum albumin, horse radish peroxidase-conjugated secondary antibody (1 mg/mL) was added. Raw data were analyzed using GraphPad PRISM (GraphPad Software, Inc., La Jolla, CA) and HbF levels were calculated as a ratio of total hemoglobin corrected for total protein (HbF/total Hb/total protein).

Test [3] has as its system HbF-positive primary erythroid progenitors. The experiment in a line: Anti-HbF FITC immunostaining of primary erythroid progenitors. Type of test: cell-based, human. The note with it: anti-HbF FITC / DAPI, 500 cells counted; 15.5% HbF-positive at baseline in untreated cells. As to the method:
as §1
Primary erythroid progenitor cytospin cell preparations were fixed with 4% paraformaldehyde in phosphate buffered saline for 15 min, washed, and then permeabilized with 0.3% Trition-100 solution for 10 min. Cells were then blocked in a 5% bovine serum albumin solution and immunostaining performed at 4°C overnight with anti-HbF fluorescein isothiocyanate (FITC) conjugated antibody (Bethyl Laboratories Inc., TX). Cell nuclei were stained with mounting medium containing 4′,6-diamidino-2-phenylindole (DAPI; Santa Cruz Biotechnology, CA). Primary cells were photographed with an Olympus BX 51 phase contrast epifluorescent microscope equipped with Hoffman Modulation optics. Phase-contrast images were recorded with a CCD camera (1/100 sec exposure) and fluorescence images were photographed through 485/520 nm emission filter. The percent of HbF positive cells was calculated by dividing the number of FITC positive cells by total cells (DAPI positive).
Figure 3 JMA33 and JMA26 induce HbF in primary erythroid cells. (a) Day 11 erythroid progenitors were treated for 48 hr with the controls agents and the FK228 analogues shown and then analyzed by RT-qPCR. Untreated cells (UT) were used as a control and normalized to one. Data were calculated as the means ± SEM. […] The images generated were used to count 500 DAPI positive cells and the %FITC positive cells were calculated accordingly.

Test [4] relates to HDAC activity in HeLa cells. The experiment in a line: HDAC Fluorescent Activity Assay (Fluor de Lys) in HeLa cells. The format is cell-based, human. Conditions: TSA 0.5 to 1000 nM; HeLa cells, Fluor de Lys substrate, fluorescence 440 nm. On the procedure:
The HDAC Fluorescent Activity Assay (Enzo Life Science, Farmingdale, NY) was used to measure HDAC inhibition in HeLa cells in a 96-well format using Trichostatin A as the positive control per the manufacturer's protocol. This assay is based on the Fluor de Lys (Fluorogenic Histone Deacetylase Lysyl (FDL)) Substrate/Developer. The procedure was as follows: the test compounds FK228, JMA26, and JMA33 were added to HeLa cells along with the FDL substrate to allow intracellular drug activation then fluorescence levels were read on the fluorometer at 440 nm (CytoFluor II, PerSeptive Biosystems, Farmingdale, NY). The drug concentrations tested were based on the amount required for HbF induction in primary cells. Data was reported as the mean ± standard deviation (SD) for at least five replicates.
To ascertain the mechanism of HbF induction by the lead compounds, we performed an in vivo assay to investigate the ability of JMA26 and JMA33 to act as HDAC inhibitors. The HDAC Fluorescent Activity Assay designed to measure HDAC activity in HeLa cells was completed in a 96-well format. The assay is based on the fact that the Fluor de Lys substrate is deacetylated by HDACs to generate a fluorescent readout. TSA (0.5 to 1000 nM) was used to establish the assay in HeLa cells, showing about 80% HDAC inhibition in our system (Figure 4(a)).
Figure 4 HDAC inhibition assay. The HDAC Fluorescent Activity Assay was used to measure HDAC inhibition in HeLa cells (See Section 2). Compounds and FDL substrate were added to HeLa cells to allow drug activation in vivo then fluorescence levels were quantified on the fluorometer at 440 nm. (a) Trichostatin A (TSA) was used as the control. (b) Inhibition studies were conducted for FK228 showing maximal HDAC inhibition at the 300 nM concentration. (c) Similar studies were performed for JMA33 and JMA26. The data are reported as the means ± SEM.

The next test concerns sickle-cell patients. The note with it: sickle cell patients treated with hydroxyurea; cited from earlier work. From the text: Several classes of pharmacological compounds that reactivate γ-globin gene transcription have been identified. They include cytotoxic agents, DNA methyl transferase, and histone deacetylase (HDAC) inhibitors. Cytotoxic compounds terminate actively cycling progenitors and perturb cellular growth to trigger rapid erythroid regeneration and γ-globin gene activation. S-stage cytotoxic drugs, such as cytosine arabinoside, myleran, vinblastine, and hydroxyurea, induce HbF production in primates and humans. The Multicenter Study of Hydroxyurea established ...

The test system of test [5] is γ-globin transcription in primary erythroid progenitors. The experiment in a line: RT-qPCR of γ-globin mRNA in primary erythroid progenitors (two-phase liquid culture). The format is cell-based, human. The note with it: Day 11 erythroid progenitors treated 48 hr (Figure 3 legend), untreated normalized to one. On the procedure:
as §1
Total RNA was isolated from samples using RNA Stat-60 (TEL-TEST “B” Inc., Friendswood, TX) and used for RT-qPCR analysis as previously published. […] The globin mRNA levels were calculated as a ratio of GAPDH (γ/GAPDH, β/GAPDH), and the γ/β-globin mRNA ratio was calculated by dividing γ/GAPDH by β/GAPDH.
Figure 3 JMA33 and JMA26 induce HbF in primary erythroid cells. (a) Day 11 erythroid progenitors were treated for 48 hr with the controls agents and the FK228 analogues shown and then analyzed by RT-qPCR. […] Data were calculated as the means ± SEM. […] The images generated were used to count 500 DAPI positive cells and the %FITC positive cells were calculated accordingly.
(Quantitative PCR measures a nucleic acid by following its amplification.)

Where [6] appears, read: Line 1, firefly (γ) / renilla (β) luciferase corrected for total protein, mean, conc: Cys 10 mM, Hemin 50 μM, SAHA 2000 nM, FK228 1.5 nM, 1127Ox 1000 nM, JMA1 1.5 nM, JMA2 1.0 nM, JMA12 1000 nM, JMA26 500 nM, JMA33 1000 nM, JMA112 100 nM, untreated 0.0402.
[7] abbreviates: Line 1, concentrations as in E1.
Setting [8] is: Line 2, concentrations as in E1, untreated 0.1573.
Setting [9] is: Line 2, concentrations as in E1.
[10] abbreviates: Line 3, concentrations as in E1, untreated 0.0721.
Where [11] appears, read: Line 3, concentrations as in E1.

Take hemin: the “γ/γ + 2β Mean” value in test [1] (setting [6]) is recorded as 0.1732; in test [1] (setting [8]) it was 0.6593; in test [1] (setting [10]), 0.2508. In addition, the “Fold change (γ/γ + 2β)” value in test [1] (setting [7]) is 4.325; in test [1] (setting [9]), 4.261; in test [1] (setting [11]), 3.486. Also, the “Fold change in HbF levels” value in test [2] stood at 2.218 fold. In addition, the “Fetal hemoglobin quantification, Mean (HbF/total Hb/total protein)” value in test [2] came out at 1.515. Also, the “increase in HbF-positive cells” value in test [3] was determined as 3.0 fold.
For the compound `CC(/C=C/C(=O)NO)=C\[C@@H](C)C(=O)c1ccc(N(C)C)cc1` [TSA, Trichostatin A], the HDAC inhibition entry in test [4] is reported as “about 80%”.
For `NC(=O)NO` [hydroxyurea], in the test on sickle-cell patients, the non-response rate is given as 30%.
In the case of `O=C(CCCCCCC(=O)Nc1ccccc1)NO` [SAHA, suberoylanilide hydroxamic acid], the “γ/γ + 2β Mean” value was determined as 0.2157 in test [1] (setting [6]), 0.6500 in test [1] (setting [8]) and 0.2520 in test [1] (setting [10]). The “Fold change (γ/γ + 2β)” value in test [1] (setting [7]) is 5.400; in test [1] (setting [9]) it was 4.140; in test [1] (setting [11]), 3.500. Further, the “induction of γ-globin transcription at the mRNA level” value in test [5] is at most 3.2 fold. Also, the “Fold change in HbF levels” value in test [2] came to 1.602 fold. Also, the “Fetal hemoglobin quantification, Mean (HbF/total Hb/total protein)” value in test [2] worked out at 1.094. In test [3], the “increase in HbF-positive cells” value worked out at 3.2 fold.
